In patent EP4768018A1, “TOPICAL GEL FOR JAK INHIBITOR AND USE THEREOF” (Prime Gene Therapeutics Co., Ltd., priority 2023, dated 2025):
≈ marks a conversion by molar mass, not a printed value.

Key:
Type in all cases: physicochemical
[1] = Long-term (24 months) stability study of crystal forms; details: for stability study result in words: 24 months
Description: In accordance with the stability study guidelines issued by the China's National Medical Products Administration (NMPA), stability studies were conducted on Crystal Forms I, IIa, and IIb. Samples were packaged in pharmaceutical low-density polyethylene bags, and long-term stability (24 months) was evaluated.

[2] = Crystal form conversion (room temperature; in the gel formulation, XRPD)
Description: Crystal Form IIa converts to Crystal Form IIb within 1 hour at room temperature (58.6% RH). During the preparation of topical gel formulation, Crystal Form I and Crystal Form IIb were respectively used as active pharmaceutical ingredients.

[3] = Storage stability of Crystal Form III (NMR)
Description: Add 15 mg of 2-{3-[3-amino-4-(7H-pyrrolo[2,3-d]pyrimidin-4-yl)-1H-pyrazol-1-yl]-1-(isopropylsulfonyl)azetidin-3-yl}acetonitrile to 3 mL of dioxane, heat to 40°C to dissolve and obtain a clear solution, filter, and allow the solution to crystallize by evaporation at 40°C to obtain Crystal Form III.

[4] = Solubility of crystal forms in 20% propylene glycol at 32°C
Description: (§1) Solubility Study of Various Crystal Forms
Solubility in 20% Propylene Glycol at 32°C (µg/mL)

[5] = Solubility of crystal forms at different pH (37°C, 24 h)
Description: as §1
Solubility Measurement Results (37°C, 24 h)

SMILES: CC(C)S(=O)(=O)N1CC(CC#N)(n2cc(-c3ncnc4[nH]ccc34)c(N)n2)C1 [Crystal Form IIa, 2-{3-[3-amino-4-(7H-pyrrolo[2,3-d]pyrimidin-4-yl)-1H-pyrazol-1-yl]-1-(isopropylsulfonyl)azetidin-3-yl}acetonitrile Crystal Form IIa]
- Appearance ([1]; 0 month): Off-white powder
- Content ([1]; 0 month): 99.8%
- Crystal Form ([1]; 0 month): IIa
- Loss on Drying ([1]; 0 month): 0.06%
- Related Substances Max Unknown Single Impurity ([1]; 0 month): 0.06%
- Related Substances Total Impurity ([1]; 0 month): 0.28%
- Appearance ([1]; 3 month): Off-white powder
- Crystal Form ([1]; 3 month): IIb
- Loss on Drying ([1]; 3 month): 0.18%
- Related Substances Max Unknown Single Impurity ([1]; 3 month): 0.08%
- Related Substances Total Impurity ([1]; 3 month): 0.28%
- Content ([1]; 3 month, 131040 min): 97.6%
- Appearance ([1]; 6 month): Off-white powder
- Crystal Form ([1]; 6 month): IIb
- Loss on Drying ([1]; 6 month): 0.19%
- Related Substances Max Unknown Single Impurity ([1]; 6 month): 0.11%
- Related Substances Total Impurity ([1]; 6 month): 0.27%
- Content ([1]; 6 month, 263520 min): 97.8%
- Appearance ([1]; 9 month): Off-white powder
- Crystal Form ([1]; 9 month): IIb
- Loss on Drying ([1]; 9 month): 0.24%
- Related Substances Max Unknown Single Impurity ([1]; 9 month): 0.06%
- Related Substances Total Impurity ([1]; 9 month): 0.24%
- Content ([1]; 9 month, 394560 min): 97.9%
- Appearance ([1]; 12 month): Off-white powder
- Crystal Form ([1]; 12 month): IIb
- Loss on Drying ([1]; 12 month): 0.20%
- Related Substances Max Unknown Single Impurity ([1]; 12 month): 0.09%
- Related Substances Total Impurity ([1]; 12 month): 0.22%
- Content ([1]; 12 month, 525600 min): 97.8%
- Appearance ([1]; 18 month): Off-white powder
- Crystal Form ([1]; 18 month): IIb
- Loss on Drying ([1]; 18 month): 0.16%
- Related Substances Max Unknown Single Impurity ([1]; 18 month): 0.07%
- Related Substances Total Impurity ([1]; 18 month): 0.26%
- Content ([1]; 18 month, 789120 min): 98.0%
- Appearance ([1]; 24 month): Off-white powder
- Crystal Form ([1]; 24 month): IIb
- Loss on Drying ([1]; 24 month): 0.25%
- Related Substances Max Unknown Single Impurity ([1]; 24 month): 0.08%
- Related Substances Total Impurity ([1]; 24 month): 0.29%
- Content ([1]; 24 month, 1.0512e+06 min): 97.8%
- stability study result in words [1]: gradually absorbs moisture during storage and converts to Crystal Form IIb
- time of conversion to Crystal Form IIb ([2]; room temperature (58.6% RH)): ≤ 1 h

SMILES: CC(C)S(=O)(=O)N1CC(CC#N)(n2cc(-c3ncnc4[nH]ccc34)c(N)n2)C1 [Crystal Form III, 2-{3-[3-amino-4-(7H-pyrrolo[2,3-d]pyrimidin-4-yl)-1H-pyrazol-1-yl]-1-(isopropylsulfonyl)azetidin-3-yl}acetonitrile Crystal Form III]
- impurity formation ([3]; after storage, NMR): approximately 10%
- stability ([3]; in words): poor stability

SMILES: CC(C)S(=O)(=O)N1CC(CC#N)(n2cc(-c3ncnc4[nH]ccc34)c(N)n2)C1 [Crystal Form IIb, 2-{3-[3-amino-4-(7H-pyrrolo[2,3-d]pyrimidin-4-yl)-1H-pyrazol-1-yl]-1-(isopropylsulfonyl)azetidin-3-yl}acetonitrile Crystal Form IIb]
- Solubility in 20% Propylene Glycol at 32°C ([4]; 10 min): 6.1 µg/mL (≈ 15.2 µM)
- Solubility in 20% Propylene Glycol at 32°C ([4]; 30 min): 9.5 µg/mL (≈ 23.7 µM)
- Solubility in 20% Propylene Glycol at 32°C ([4]; 1 h, 60 min): 10.8 µg/mL (≈ 27 µM)
- Solubility in 20% Propylene Glycol at 32°C ([4]; 2 h, 120 min): 11.2 µg/mL (≈ 28 µM)
- Solubility in 20% Propylene Glycol at 32°C ([4]; 18 h, 1080 min): 13.3 µg/mL (≈ 33.2 µM)
- Solubility Conc. ([5]; pH 1.0, 1440 min): 149900 ng/mL (≈ 374 µM)
- Solubility Conc. ([5]; pH 2.0, 1440 min): 17400 ng/mL (≈ 43.4 µM)
- Solubility Conc. ([5]; pH 3.8, 1440 min): 900 ng/mL (≈ 2.25 µM)
- Solubility Conc. ([5]; pH 4.5, 1440 min): 700 ng/mL (≈ 1.75 µM)
- Solubility Conc. ([5]; pH 5.5, 1440 min): 500 ng/mL (≈ 1.25 µM)
- Solubility Conc. ([5]; pH 6.8, 1440 min): 600 ng/mL (≈ 1.5 µM)
- Solubility Conc. ([5]; pH 7.0, 1440 min): 800 ng/mL (≈ 2 µM)
- Solubility Conc. ([5]; pH 8.0, 1440 min): 700 ng/mL (≈ 1.75 µM)
- Appearance ([1]; 0 month): Off-white powder
- Content ([1]; 0 month): 99.7%
- Crystal Form ([1]; 0 month): IIb
- Loss on Drying ([1]; 0 month): 0.36%
- Related Substances Max Unknown Single Impurity ([1]; 0 month): 0.07%
- Related Substances Total Impurity ([1]; 0 month): 0.38%
- Appearance ([1]; 3 month): Off-white powder
- Crystal Form ([1]; 3 month): IIb
- Loss on Drying ([1]; 3 month): 0.36%
- Related Substances Max Unknown Single Impurity ([1]; 3 month): 0.08%
- Related Substances Total Impurity ([1]; 3 month): 0.38%
- Content ([1]; 3 month, 131040 min): 99.7%
- Appearance ([1]; 6 month): Off-white powder
- Crystal Form ([1]; 6 month): IIb
- Loss on Drying ([1]; 6 month): 0.39%
- Related Substances Max Unknown Single Impurity ([1]; 6 month): 0.08%
- Related Substances Total Impurity ([1]; 6 month): 0.37%
- Content ([1]; 6 month, 263520 min): 99.6%
- Appearance ([1]; 9 month): Off-white powder
- Crystal Form ([1]; 9 month): IIb
- Loss on Drying ([1]; 9 month): 0.34%
- Related Substances Max Unknown Single Impurity ([1]; 9 month): 0.08%
- Related Substances Total Impurity ([1]; 9 month): 0.38%
- Content ([1]; 9 month, 394560 min): 99.5%
- Appearance ([1]; 12 month): Off-white powder
- Crystal Form ([1]; 12 month): IIb
- Loss on Drying ([1]; 12 month): 0.30%
- Related Substances Max Unknown Single Impurity ([1]; 12 month): 0.07%
- Related Substances Total Impurity ([1]; 12 month): 0.37%
- Content ([1]; 12 month, 525600 min): 99.6%
- Appearance ([1]; 18 month): Off-white powder
- Crystal Form ([1]; 18 month): IIb
- Loss on Drying ([1]; 18 month): 0.31%
- Related Substances Max Unknown Single Impurity ([1]; 18 month): 0.07%
- Related Substances Total Impurity ([1]; 18 month): 0.39%
- Content ([1]; 18 month, 789120 min): 99.6%
- Appearance ([1]; 24 month): Off-white powder
- Crystal Form ([1]; 24 month): IIb
- Loss on Drying ([1]; 24 month): 0.32%
- Related Substances Max Unknown Single Impurity ([1]; 24 month): 0.08%
- Related Substances Total Impurity ([1]; 24 month): 0.39%
- Content ([1]; 24 month, 1.0512e+06 min): 99.7%
- stability study result in words [1]: good chemical stability
- crystal form of the active pharmaceutical ingredient in the final gel formulation ([2]; after 3 days, XRPD, FIG. 5 to FIG. 6): exclusively in form IIb
